Reference: patent publication US10227331B2 (priority 2015, dated 2019)
Read-outs that look alike come from different tables or passages of the source.

Legend:
[1] = test system: P. aeruginosa expressing IMP-1, efflux− (MB9799); assay: Efflux: concentration of MBL inhibitor which restores susceptibility to imipenem; type: cell-based, Pseudomonas aeruginosa; details: imipenem at 2 μg/mL, in the presence of a class A, C, D serine β-lactamase inhibitor closely related to relebactam
Description: (§1) The strain background is Pseudomonas aeruginosa PAO1.

[2] = test system: P. aeruginosa expressing IMP-1, efflux+ (MB9798); type: cell-based, Pseudomonas aeruginosa; details: for P. aeruginosa expressing IMP-1, efflux+ (MB9798) MITC95: imipenem at 2 μg/mL, in the presence of a class A, C, D serine β-lactamase inhibitor closely related to relebactam; for Efflux ratio: ratio MITC95 PA_9798/MITC95 PA_9799
Description: as §1

[3] = test system: Klebsiella pneumoniae expressing VIM-1 (IHMA599644); type: cell-based; details: with imipenem 1 μg/ml, 95% inhibition of bacterial growth; for Klebsiella pneumoniae MITC95: VIM-1 (IHMA599644)
Procedure, shortened: (§2)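 Colonies from overnight 35 °C blood-agar cultures were suspended in saline, diluted 1:100 into 1.1× CAMHB and exposed to test compound with or without imipenem at 1 μg/ml. After 22–24 h at 35 °C, absorbance was read to find the concentration restoring imipenem susceptibility.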

[4] = test system: Serratia marcescens expressing IMP-1 (CL5741); type: cell-based; details: with imipenem 1 μg/ml, 95% inhibition of bacterial growth; for Serratia marcescens MITC95: IMP-1 (CL5741)
Procedure, shortened: as §2

[5] = test system: Escherichia coli expressing NDM-1 (CLB30005, CLB30016); type: cell-based; details: with imipenem 1 μg/ml, 95% inhibition of bacterial growth; for Escherichia coli MITC95: NDM-1 (CLB30016)
Procedure, shortened: as §2

[6] = target: VIM-1 (Pseudomonas aeruginosa (strain ATCC 15692 / DSM 22644 / CIP 104116 / JCM 14847 / LMG 12228 / 1C / PRS 101 / PAO1), UniProt A0A0F7KYQ8); assay: biochemical; details: CCF2-FA substrate, 2 hours at 25° C
Procedure, shortened: (§3)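 Fluorescence assay, CCF2-FA substrate (cephalosporin core linking 7-hydroxycoumarin to fluorescein); inhibitor + MBL + substrate, 2 h, 25° C. IC50 by 4-parameter fit, semi-log plot.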

[7] = target: NDM-1 (Klebsiella pneumoniae, UniProt C7C422); assay: biochemical; type: biochemical; details: CCF2-FA substrate, 2 hours at 25° C; read-out: NDM-1 IC50
Procedure, shortened: as §3

[8] = target: IMP-1 (Serratia marcescens, UniProt P52699); assay: biochemical; type: biochemical
Procedure, shortened: as §3

[9] = CCF2-FA substrate, 2 hours at 25° C, read-out: IMP-1 IC50

NDM-1, sequence (C7C422 whole entry, looked up, species assumed): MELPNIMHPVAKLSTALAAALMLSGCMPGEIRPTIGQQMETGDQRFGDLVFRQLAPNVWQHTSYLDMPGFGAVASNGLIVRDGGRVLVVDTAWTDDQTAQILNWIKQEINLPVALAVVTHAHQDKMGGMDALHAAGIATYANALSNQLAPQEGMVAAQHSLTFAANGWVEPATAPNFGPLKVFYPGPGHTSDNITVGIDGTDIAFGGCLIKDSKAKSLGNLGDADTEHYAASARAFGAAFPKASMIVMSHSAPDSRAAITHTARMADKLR
IMP-1, sequence (P52699 whole entry, looked up, species assumed): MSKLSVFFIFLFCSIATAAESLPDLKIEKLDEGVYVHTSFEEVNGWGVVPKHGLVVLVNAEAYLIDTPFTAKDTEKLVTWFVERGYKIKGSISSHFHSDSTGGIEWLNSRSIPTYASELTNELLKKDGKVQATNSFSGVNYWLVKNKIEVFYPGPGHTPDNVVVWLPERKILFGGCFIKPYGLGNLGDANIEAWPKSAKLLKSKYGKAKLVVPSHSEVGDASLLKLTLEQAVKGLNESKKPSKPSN

SMILES | P. aeruginosa expressing IMP-1, efflux− (MB9799) MITC95 [1] [µM] | P. aeruginosa expressing IMP-1, efflux+ (MB9798) MITC95 [2] [µM] | Efflux ratio [2] | Klebsiella pneumoniae expressing VIM-1 (IHMA599644) MITC95 [3] [µM] | Serratia marcescens expressing IMP-1 (CL5741) MITC95 [4] [µM] | Escherichia coli expressing NDM-1 (CLB30016) MITC95 [5] [µM] | IC50 [6] [nM] | IC50 [7] [nM] | IC50 [8, 9] [nM] | Klebsiella pneumoniae MITC95 [3] [µM] | Serratia marcescens MITC95 [4] [µM] | Escherichia coli MITC95 [5] [µM] | IC50 [8] [nM]
NS(=O)(=O)c1c(S(=O)(=O)C2CNC2)ccc(-c2cccc3sc(C(=O)O)nc23)c1-c1nnn[nH]1 [Example 68, 4-(4-(azetidin-3-ylsulfonyl)-3-sulfamoyl-2-(1H-tetrazol-5-yl)phenyl)benzo[d]thiazole-2-carboxylic Acid] | 3.125 | 6.25 | 2.00 | 12.5 | 6.25 | 6.25 | 0.256 | 0.0709 | 0.356 |  |  |  | 
C[C@H](CN)S(=O)(=O)c1ccc(-c2cccc3c2nc(N)n3C)c(-c2nn[nH]n2)c1S(N)(=O)=O [Example 279, 3-(2-amino-1-methyl-1H-benzo[d]imidazol-4-yl)-6-((R)-1-aminopropan-2-ylsulfonyl)-2-(2H-tetrazol-5-yl)benzenesulfonamide] | 0.7813 | 3.125 | 4.00 |  |  |  | 0.47 | 0.806 | 0.695 | 1.563 | 1.563 | 0.3906 | 
NCCS(=O)(=O)c1ccc(-c2cccc3[nH]c(C(F)(F)CN)nc23)c(-c2nn[nH]n2)c1S(N)(=O)=O [Example 307, 3-(2-(2-amino-1,1-difluoroethyl)-1H-benzo[d]imidazol-4-yl)-6-((2-aminoethyl)sulfonyl)-2-(2H-tetrazol-5-yl) benzenesulfonamide] | 0.3906 | 0.3906 | 1.00 |  |  |  | 0.0306 | 0.0372 | 0.0868 | 0.7813 | 0.7813 | 0.7813 | 
NC[C@H](N)CS(=O)(=O)c1ccc(-c2cccc3[nH]c(N)nc23)c(-c2nnn[nH]2)c1S(N)(=O)=O [Example 293, 3-(2-amino-1H-benzo[d]imidazol-4-yl)-6-((S)-2,3-diaminopropylsulfonyl)-2-(1H-tetrazol-5-yl)benzenesulfonamide] | 0.7813 | 0.7813 | 1.00 |  |  |  | 0.465 | 0.157 | 1.31 | 1.563 | 1.563 | 0.3906 | 
Nc1nc2c(-c3ccc(S(=O)(=O)C4CCNCC4)c(S(N)(=O)=O)c3-c3nn[nH]n3)cccc2s1 [Example 315, 3-(2-aminobenzo[d]thiazol-4-yl)-6-(piperidin-4-ylsulfonyl)-2-(2H-tetrazol-5-yl)benzenesulfonamide] | 0.7813 | 0.7813 | 1.00 |  |  |  | 0.251 | 0.113 |  | 3.125 | 1.563 | 1.563 | 0.249
NCCS(=O)(=O)c1ccc(-c2cccc3sc(CN)nc23)c(-c2nn[nH]n2)c1S(N)(=O)=O [Example 87, 6-(2-aminoethylsulfonyl)-3-(2-(aminomethyl)benzo[d]thiazol-4-yl)-2-(2H-tetrazol-5-yl)benzenesulfonamide] | 0.3906 | 0.7813 | 2.00 | 0.7813 | 0.7813 | 0.7813 | 0.133 | 0.475 | 0.562 |  |  |  | 
Nc1n[nH]c2ccc(-c3ccc(S(=O)(=O)C4CNC4)c(S(N)(=O)=O)c3-c3nnn[nH]3)cc12 [Example 264, 3-(3-amino-1H-indazol-5-yl)-6-(azetidin-3-ylsulfonyl)-2-(1H-tetrazol-5-yl) benzenesulfonamide] | 0.7813 | 6.25 | 8.00 |  |  |  | 0.175 | 0.364 | 1.82 | 3.125 | 1.563 | 3.125 | 
NS(=O)(=O)c1c(S(=O)(=O)C2CNC2)ccc(-c2cccc3nccn23)c1-c1nnn[nH]1 [Example 66, 6-(Azetidin-3-ylsulfonyl)-3-(imidazo[1,2-a]pyridin-5-yl)-2-(1H-tetrazol-5-yl)benzenesulfonamide] | 6.25 | 50 | 8.00 | 12.5 | 6.25 | 3.125 | 0.569 | 0.591 | 9.67 |  |  |  | 
Nc1ccc(-c2ccc([S+]([O-])C3CCNCC3)c(S(N)(=O)=O)c2-c2nn[nH]n2)cn1 (stereo not drawn) [Example 10, 3-(6-aminopyridin-3-yl)-6-(piperidin-4-ylsulfinyl)-2-(2H-tetrazol-5-yl)benzenesulfonamide] | 3.125 | 6.25 | 2.00 | 6.25 | 6.25 | 6.25 | 6.46 | 3.2 | 27.3 |  |  |  | 
C[C@@H](N)CS(=O)(=O)c1ccc(-c2cccc3[nH]c(C(=O)O)nc23)c(-c2nn[nH]n2)c1S(N)(=O)=O [Example 348, Ammonium (R)-4-(4-((2-aminopropyl)sulfonyl)-3-sulfamoyl-2-(2H-tetrazol-5-yl)phenyl)-1H-benzo[d]imidazole-2-carboxylate] | 3.125 | 25 | 8.00 |  |  |  | 0.478 | 0.163 | 0.847 | 6.25 | 3.125 | 3.125 | 
NCCCS(=O)(=O)c1ccc(-c2cccc3[nH]cnc23)c(-c2nn[nH]n2)c1S(N)(=O)=O [Example 354, 6-((3-aminopropyl)sulfonyl)-3-(1H-benzo[d]imidazol-7-yl)-2-(1H-tetrazol-5-yl) benzenesulfonamide] | 0.7813 | 0.7813 | 1.00 |  |  |  | 0.162 | 0.226 | 0.275 | 1.563 | 0.7813 | 0.7813 | 
